Experimental data as given in patent US10463658B2, “Method of inhibiting FLT3 kinase” (AROG Pharmaceuticals, LLC, priority 2013, dated 2019).
Residue numbers refer to the chain shown, from its start.

How the values were obtained:
[1] = target: T1, FLT3-ITD (Homo sapiens, UniProt P36888); assay: Inhibition of FLT3-ITD phosphorylation by western blot in Molm-13 cells; assay type: cell-based; conditions: tosylate salt, read-out: IC50, inhibition of phosphorylation of the FLT3-ITD receptor
T1 sequence (P36888 with tags, fused parts or gaps DUP594-600): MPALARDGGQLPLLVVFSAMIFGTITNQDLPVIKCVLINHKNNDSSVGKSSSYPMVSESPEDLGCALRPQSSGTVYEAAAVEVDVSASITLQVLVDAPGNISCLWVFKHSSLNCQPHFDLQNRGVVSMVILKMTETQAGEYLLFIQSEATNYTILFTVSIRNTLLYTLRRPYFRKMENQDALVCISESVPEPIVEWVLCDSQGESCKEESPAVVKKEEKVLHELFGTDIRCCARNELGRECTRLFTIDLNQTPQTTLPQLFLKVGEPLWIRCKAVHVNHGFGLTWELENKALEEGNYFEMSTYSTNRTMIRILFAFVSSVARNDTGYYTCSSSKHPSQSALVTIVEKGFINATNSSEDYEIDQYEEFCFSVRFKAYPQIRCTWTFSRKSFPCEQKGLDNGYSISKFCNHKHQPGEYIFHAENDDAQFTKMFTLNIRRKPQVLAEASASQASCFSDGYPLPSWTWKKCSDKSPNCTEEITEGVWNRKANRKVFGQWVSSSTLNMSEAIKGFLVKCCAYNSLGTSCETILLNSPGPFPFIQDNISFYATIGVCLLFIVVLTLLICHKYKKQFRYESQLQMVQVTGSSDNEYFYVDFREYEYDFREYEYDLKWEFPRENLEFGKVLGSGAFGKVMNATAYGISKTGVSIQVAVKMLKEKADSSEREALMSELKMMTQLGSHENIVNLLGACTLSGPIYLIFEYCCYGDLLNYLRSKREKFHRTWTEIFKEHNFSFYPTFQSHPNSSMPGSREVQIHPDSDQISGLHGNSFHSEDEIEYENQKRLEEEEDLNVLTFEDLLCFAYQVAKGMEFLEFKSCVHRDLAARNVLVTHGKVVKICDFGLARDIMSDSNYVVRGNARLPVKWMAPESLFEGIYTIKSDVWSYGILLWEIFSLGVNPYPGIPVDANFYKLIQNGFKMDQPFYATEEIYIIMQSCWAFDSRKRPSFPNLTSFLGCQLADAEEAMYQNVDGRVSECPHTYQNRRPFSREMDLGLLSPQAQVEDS
Protocol: The ability of the tosylate (toluenesulfonate) salt of CP-673,451 to inhibit phosphorylated FLT3 was determined using cell lines expressing FLT3-ITD, including Molm-13 (a human acute myeloid leukemia cell line) and BaF3 (bone marrow-derived pro-B-cell line) cells transduced to express FLT3. The effect was examined by western blot.

[2] = target: T2, FLT3 D835V (Homo sapiens, UniProt P36888, D835V); assay: KINOMEscan KdElect competitive binding assay, FLT3 D835V; conditions: tosylate salt
T2 construct: host or cells: E. coli BL21-derived host (T7 phage) or HEK-293
T2 sequence (P36888 610-943 D835V limits assumed): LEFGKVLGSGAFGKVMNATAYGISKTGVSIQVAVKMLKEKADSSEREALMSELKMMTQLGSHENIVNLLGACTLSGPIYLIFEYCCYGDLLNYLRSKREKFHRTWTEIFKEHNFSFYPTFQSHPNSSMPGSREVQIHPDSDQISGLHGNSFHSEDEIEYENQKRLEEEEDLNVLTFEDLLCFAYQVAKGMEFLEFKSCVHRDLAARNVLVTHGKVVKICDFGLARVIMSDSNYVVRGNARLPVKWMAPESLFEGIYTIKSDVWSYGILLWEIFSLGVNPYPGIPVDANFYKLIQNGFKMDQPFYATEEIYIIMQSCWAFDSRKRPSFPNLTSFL
Text: Competitive binding assay.
The lysates were then centrifuged and filtered.

[3] = target: T3, FLT3 wild type (Homo sapiens, UniProt P36888); assay: KINOMEscan KdElect competitive binding assay, wild type FLT3; conditions: CP-673,451 as tosylate salt; read-out: Binding Constant (Kd), FLT3 wild type
T3 construct: host or cells: E. coli BL21-derived host (T7 phage) or HEK-293
T3 sequence (P36888 610-943 limits assumed): T2 sequence (P36888 610-943 D835V limits assumed) with V226D

IC50 [1]: 0.7 nM
Kd [2]: 0.015 nM
Kd [3]: 0.35 nM
Structure (SMILES): COCCOc1ccc2c(c1)ncn2-c1ccc2cccc(N3CCC(N)CC3)c2n1 [CP-673,451]
